# According to ChEMBL document CHEMBL1201862, “PubChem BioAssay data set” (2004):
# Active and inactive are the calls of the source. The rule behind the calls is not given here.
# Tests used:
# [1] = target: T1, Nuclear receptor subfamily 0 group B member 1 (Homo sapiens, UniProt P51843); assay: Luminescence-based cell-based high throughput dose response assay for inhibitors of the orphan nuclear receptor subfamily 0, group B, member 1 (DAX1; NR0B1). [Related pubchem assays (depositor defined):AID504766, AID504790]; assay type: functional
# T1 sequence (P51843 whole entry): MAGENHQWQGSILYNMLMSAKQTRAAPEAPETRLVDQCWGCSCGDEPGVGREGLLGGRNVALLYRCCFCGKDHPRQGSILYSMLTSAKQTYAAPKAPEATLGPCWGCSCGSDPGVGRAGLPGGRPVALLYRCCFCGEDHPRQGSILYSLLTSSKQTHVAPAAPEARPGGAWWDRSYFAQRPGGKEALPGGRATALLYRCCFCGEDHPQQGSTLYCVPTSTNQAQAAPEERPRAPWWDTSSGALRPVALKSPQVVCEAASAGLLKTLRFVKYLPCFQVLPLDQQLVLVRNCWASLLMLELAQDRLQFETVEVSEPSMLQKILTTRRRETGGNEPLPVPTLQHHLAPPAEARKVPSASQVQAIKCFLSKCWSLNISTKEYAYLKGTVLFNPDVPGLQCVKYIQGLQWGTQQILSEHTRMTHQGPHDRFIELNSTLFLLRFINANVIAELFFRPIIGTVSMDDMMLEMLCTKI
# HEK293 = assay: cells; assay type: functional, cell-based; conditions: Homo sapiens
# Vero = assay: viability of Vero cells under compound – cytotoxicity control for flavivirus capping enzyme inhibitors (AID 588742); assay type: functional; conditions: Chlorocebus sabaeus
# Genome polyprotein = Genome polyprotein (dengue virus type 2, UniProt P29990); assay: flavivirus cap methylation enzyme inhibition – biochemical, confirmation dose response, primary screen (AID 588689); assay type: functional
# [2] = target: Protein disulfide-isomerase (Homo sapiens, UniProt P07237); assay: inhibition of PDI-driven insulin aggregation – biochemical, turbidity, absorbance, cherry-picked samples, dose response (AID 602350); assay type: functional
# [3] = target: T2, Short transient receptor potential channel 4 (Mus musculus, UniProt Q9QUQ5); assay: block of DAMGO-driven TRPC4 calcium entry – cell-based, HEK293 TRPC4/mu-opioid, Fluo-4 calcium, dose response (AID 434942); assay type: functional;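 note: potency of inhibitors blocking the TRPC4 calcium response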
# T2 sequence (Q9QUQ5 whole entry): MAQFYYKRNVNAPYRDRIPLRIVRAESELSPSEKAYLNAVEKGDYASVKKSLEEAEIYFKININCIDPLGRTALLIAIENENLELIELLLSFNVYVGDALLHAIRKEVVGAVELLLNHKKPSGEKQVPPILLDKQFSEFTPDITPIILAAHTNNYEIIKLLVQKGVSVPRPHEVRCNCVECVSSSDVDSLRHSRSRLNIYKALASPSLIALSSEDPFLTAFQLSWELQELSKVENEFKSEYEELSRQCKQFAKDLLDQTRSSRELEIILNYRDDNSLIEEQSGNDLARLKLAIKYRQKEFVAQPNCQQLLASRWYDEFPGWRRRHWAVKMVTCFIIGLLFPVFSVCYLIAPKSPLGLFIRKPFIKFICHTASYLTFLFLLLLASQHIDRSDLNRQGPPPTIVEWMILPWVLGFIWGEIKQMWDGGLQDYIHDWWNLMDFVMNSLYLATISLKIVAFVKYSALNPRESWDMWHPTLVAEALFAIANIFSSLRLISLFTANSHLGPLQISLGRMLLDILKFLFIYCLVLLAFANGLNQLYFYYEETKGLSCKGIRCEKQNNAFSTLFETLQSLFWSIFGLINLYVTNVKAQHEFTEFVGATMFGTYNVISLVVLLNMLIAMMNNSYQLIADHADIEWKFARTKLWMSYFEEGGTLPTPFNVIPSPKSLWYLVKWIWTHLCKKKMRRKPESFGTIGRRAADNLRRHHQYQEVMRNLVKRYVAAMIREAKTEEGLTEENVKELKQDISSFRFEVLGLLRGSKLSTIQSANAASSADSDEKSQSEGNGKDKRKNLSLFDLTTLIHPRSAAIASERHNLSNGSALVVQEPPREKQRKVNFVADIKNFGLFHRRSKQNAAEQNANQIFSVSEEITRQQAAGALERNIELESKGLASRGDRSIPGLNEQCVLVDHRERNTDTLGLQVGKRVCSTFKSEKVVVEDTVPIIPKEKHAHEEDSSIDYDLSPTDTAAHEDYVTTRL
# Candida albicans = assay: fluconazole-resistant Candida strain growth inhibitors – CaCi-8 strain, dry powder, set 4, dose response (AID 488950); assay type: functional, organism-based
# Sequence of Protein disulfide-isomerase (P07237 whole entry): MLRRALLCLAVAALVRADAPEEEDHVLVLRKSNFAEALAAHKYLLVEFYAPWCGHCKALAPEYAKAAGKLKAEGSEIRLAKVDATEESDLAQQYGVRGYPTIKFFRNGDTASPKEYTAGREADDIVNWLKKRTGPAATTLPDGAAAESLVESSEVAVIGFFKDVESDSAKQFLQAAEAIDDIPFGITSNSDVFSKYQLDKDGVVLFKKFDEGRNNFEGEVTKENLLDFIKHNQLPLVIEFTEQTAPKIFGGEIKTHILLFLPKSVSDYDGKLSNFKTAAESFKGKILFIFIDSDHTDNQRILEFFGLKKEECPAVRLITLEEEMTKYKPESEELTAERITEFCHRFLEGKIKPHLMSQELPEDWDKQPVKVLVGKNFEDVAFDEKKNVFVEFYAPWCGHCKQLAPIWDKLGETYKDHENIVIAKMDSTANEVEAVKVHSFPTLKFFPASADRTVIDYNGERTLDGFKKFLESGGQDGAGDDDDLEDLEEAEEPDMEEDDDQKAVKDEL
# Sequence of Genome polyprotein (P29990 2492-3391 limits assumed): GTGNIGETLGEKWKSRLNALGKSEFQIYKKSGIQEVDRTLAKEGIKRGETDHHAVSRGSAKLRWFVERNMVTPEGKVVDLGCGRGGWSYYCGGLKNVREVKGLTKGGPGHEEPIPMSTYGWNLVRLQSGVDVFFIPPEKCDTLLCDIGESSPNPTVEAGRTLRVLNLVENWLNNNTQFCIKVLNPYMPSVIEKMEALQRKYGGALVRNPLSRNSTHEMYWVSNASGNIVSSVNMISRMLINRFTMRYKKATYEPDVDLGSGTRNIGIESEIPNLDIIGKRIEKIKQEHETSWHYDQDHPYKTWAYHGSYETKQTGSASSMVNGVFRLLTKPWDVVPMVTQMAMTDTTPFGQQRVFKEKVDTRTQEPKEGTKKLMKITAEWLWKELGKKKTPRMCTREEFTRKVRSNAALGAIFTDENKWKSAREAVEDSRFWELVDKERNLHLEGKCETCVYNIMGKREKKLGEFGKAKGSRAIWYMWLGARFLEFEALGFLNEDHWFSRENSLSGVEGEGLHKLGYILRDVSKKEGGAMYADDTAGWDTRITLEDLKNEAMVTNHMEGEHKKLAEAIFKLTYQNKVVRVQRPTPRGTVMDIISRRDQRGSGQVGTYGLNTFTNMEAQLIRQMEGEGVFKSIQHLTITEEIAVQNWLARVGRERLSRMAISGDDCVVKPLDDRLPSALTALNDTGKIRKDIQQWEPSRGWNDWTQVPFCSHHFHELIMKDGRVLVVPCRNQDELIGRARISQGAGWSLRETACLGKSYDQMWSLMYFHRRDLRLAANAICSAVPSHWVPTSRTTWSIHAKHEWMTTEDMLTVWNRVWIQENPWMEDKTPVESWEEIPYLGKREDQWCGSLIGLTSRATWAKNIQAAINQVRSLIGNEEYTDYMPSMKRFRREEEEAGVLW
smiles,measurement,setting,value
CC(C=NNc1ccc([N+](=O)[O-])cn1)=Cc1ccccc1,IC50,[1],> 67.5 µM (inactive)
same,IC50,HEK293,> 67.5 µM (inactive)
O=S(=O)(N=C1C=CC(=NS(=O)(=O)c2ccccc2)c2ccccc21)c1ccccc1,CC50,Vero,34.1 µM (active)
same,IC50,Genome polyprotein,19.1 µM (active)
CC(Cc1ccccc1Sc1ccccc1O)N(C)C (configuration not stated),AC50,[2],15.9 µM (active)
same,EC50,[3],0.944 µM (active)
O=C(c1ccc(Cl)cc1)N1CCN(c2cccc(C(F)(F)F)n2)CC1,AC50,Candida albicans,172 µM (active)
